One series deals with T1, NK1 receptors (Homo sapiens, UniProt P25103).
T1 construct: In vitro autoradiography is performed with tumor tissue expressing NK1 receptors; from tissue
The series can be described thus: Binding affinity to NK-1 receptors, in vitro autoradiography, displacement of ^125I-Bolton-Hunter-SP. As to conditions: tumor tissue expressing NK1 receptors; radioligand ^125I-Bolton-Hunter-SP; concentrations 0.1 nM to 1'000 nM; read-out: IC50 ± SEM (mean value). On the procedure:
Example C4 Binding Affinity to NK-1 Receptors In vitro autoradiography is performed with tumor tissue expressing NK1 receptors. The used radioligand is ^125I-Bolton-Hunter-SP. Displacement experiments are performed on successive sections with the various compounds listed in the Table given in concentrations ranging from 0.1 nM to 1'000 nM.

The next series concerns gliomas / glioblastoma. On the set-up: species or system patients. The conditions noted are these: in vivo. The source says: As a third group which can serve as a control, 5 advanced cases that had been treated by the so called standard regimens with virtually no therapeutic option left anymore were included. […] In cases with biopsy alone, average survival is around 9 weeks without further treatment. In the 4 cases of this pilot study, all patients survived at least 2 months and up to 9 months, and In a special case even show a remarkable partial response. In the resected 5 cases followed by Internal radionuclide conjugate brachytherapy, overall survival appeared to be longer than expected which is in the range between 14 and 26 months. According to the only large randomized trial of 1970s which serves as historical control, resection alone would have led to an expected survival of about 4 months, and resection plus an external beam radiotherapy to a mean survival of about 9.5 months. […] This interpretation of the data is further supported by an impressive partial response (case W. […] A key question in local glioma therapy is whether one can achieve to reach infiltrating tumor cell nests or satellite lesion. […] The presently used dissipative Y-90 (range 3-6 mm) is more suitable for bulky lesions.

Series [1] is classed as in vitro ADME, patients. On the procedure: Further stability test by in vitro experiments incubating ^90Y-DOTAGA-Substance P in different CSF (cerebrospinal fluid) aspirates from patients are executed.

Square brackets hold non-standard residues; d marks the D form. Peptide text beside a SMILES is read from it. * marks the point of attachment. DOTA = O=C(O)CN1CCN(CC(=O)O)CCN(CC(=O)*)CCN(CC(=O)O)CC1; Met(O2) = CS(=O)(=O)CC[C@H](N)C(=O)O; 2Thi = N[C@@H](Cc1cccs1)C(=O)O; Sar = CNCC(=O)O

A word on the IC50: it is the concentration that gives 50% inhibition.

T1 sequence (P25103 whole entry): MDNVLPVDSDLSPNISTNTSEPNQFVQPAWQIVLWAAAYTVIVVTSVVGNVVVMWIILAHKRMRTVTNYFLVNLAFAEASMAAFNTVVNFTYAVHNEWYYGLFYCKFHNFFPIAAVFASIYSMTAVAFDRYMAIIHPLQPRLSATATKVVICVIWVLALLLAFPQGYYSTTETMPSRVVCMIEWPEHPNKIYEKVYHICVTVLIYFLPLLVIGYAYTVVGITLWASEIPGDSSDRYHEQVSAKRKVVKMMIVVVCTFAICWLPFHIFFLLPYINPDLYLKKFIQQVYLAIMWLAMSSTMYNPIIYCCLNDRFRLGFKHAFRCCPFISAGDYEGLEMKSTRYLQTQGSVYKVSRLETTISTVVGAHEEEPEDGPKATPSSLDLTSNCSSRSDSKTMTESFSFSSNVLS

Take `CC(C)C[C@H](NC(=O)CNC(=O)[C@H](Cc1cccs1)NC(=O)[C@H](Cc1ccccc1)NC(=O)[C@H](CCC(N)=O)NC(=O)[C@H](CCC(N)=O)NC(=O)[C@@H]1CCCN1C(=O)[C@H](CCCCN)NC(=O)[C@@H]1CCCN1C(=O)[C@H](CCCNC(=N)N)NC(=O)CN1CCN(CC(=O)O)CCN(CC(=O)O)CCN(CC(=O)O)CC1)C(=O)N[C@@H](CCS(C)(=O)=O)C(N)=O` [^111In-DOTA-Arg^1-Pro^2-Lys^3-Pro^4-Gln^5-Gln^6Phe^7-Thi^8-Gly^9-Leu^10-Met(O2)^11—NH2, metal not drawn] ({DOTA}-RPKPQQF[2Thi]GL[Met(O2)]-NH2): the half-inhibitory concentration (IC50) at NK1 receptors came to 0.78 ± 0.03 nM.
Regarding `CSCC[C@H](NC(=O)[C@H](CC(C)C)NC(=O)CNC(=O)[C@H](Cc1ccccc1)NC(=O)[C@H](Cc1ccccc1)NC(=O)[C@H](CCC(N)=O)NC(=O)[C@H](CCC(N)=O)NC(=O)[C@@H]1CCCN1C(=O)[C@H](CCCCN)NC(=O)[C@@H]1CCCN1C(=O)[C@H](CCCNC(=N)N)NC(=O)CCC(C(=O)O)N1CCN(CC(=O)O)CCN(CC(=O)O)CCN(CC(=O)O)CC1)C(N)=O` (single isomer, unassigned) [^111In-DOTAGA-Substance P, ^111In-DOTAGA-Arg^1-Pro^2-Lys^3-Pro^4-Gln^5-Gln^6-Phe^7-Phe^8-Gly^9-Leu^10-Met^11-NH2, metal not drawn], the “diffusibility: distance of satellite lesion that becomes visible” value with gliomas / glioblastoma is on record as 4 cm.
As to `CSCC[C@H](NC(=O)[C@H](CC(C)C)NC(=O)CNC(=O)[C@H](Cc1cccs1)NC(=O)[C@H](Cc1cccs1)NC(=O)[C@H](CCC(N)=O)NC(=O)[C@H](CCC(N)=O)NC(=O)[C@@H]1CCCN1C(=O)[C@H](CCCCN)NC(=O)[C@@H]1CCCN1C(=O)[C@H](CCCNC(=N)N)NC(=O)CN1CCN(CC(=O)O)CCN(CC(=O)O)CCN(CC(=O)O)CC1)C(N)=O` [^111In-DOTA-[Thi^7, Thi^8]-Substance P, ^111In-DOTA-Arg^1-Pro^2-Lys^3-Pro^4-Gln^5-Gln^6-Thi^7-Thi^8-Gly^9-Leu^10-Met^11-NH2, metal not drawn] ({DOTA}-RPKPQQ[2Thi][2Thi]GLM-NH2), the half-inhibitory concentration (IC50) on NK1 receptors turned out to be 7.7 ± 0.7 nM.
On to `CSCC[C@H](NC(=O)[C@H](CC(C)C)NC(=O)CNC(=O)[C@H](Cc1ccccc1)NC(=O)[C@H](Cc1ccccc1)NC(=O)[C@H](CCC(N)=O)NC(=O)[C@H](CCC(N)=O)NC(=O)[C@@H]1CCCN1C(=O)[C@H](CCCCN)NC(=O)[C@@H]1CCCN1C(=O)[C@H](CCCNC(=N)N)NC(=O)CCC(C(=O)O)N1CCN(CC(=O)O)CCN(CC(=O)O)CCN(CC(=O)O)CC1)C(N)=O` (stereo partly drawn) [^90Y-DOTAGA-Substance P, ^90Y-DOTAGA-Arg^1-Pro^2-Lys^3-Pro^4-Gln^5-Gln^6-Phe^7-Phe^8-Gly^9-Leu^10-Met^11-NH2, metal not drawn], for which, in series [1], the “stability in CSF aspirate” value is listed as “stable for several hours” and the “time to complete degradation in CSF aspirate” value is given as not above 5 h.
As to `CSCC[C@H](NC(=O)[C@H](CC(C)C)NC(=O)CN(C)C(=O)[C@H](Cc1cccs1)NC(=O)[C@H](Cc1ccccc1)NC(=O)[C@H](CCC(N)=O)NC(=O)[C@H](CCC(N)=O)NC(=O)[C@@H]1CCCN1C(=O)[C@H](CCCCN)NC(=O)[C@@H]1CCCN1C(=O)[C@H](CCCNC(=N)N)NC(=O)CN1CCN(CC(=O)O)CCN(CC(=O)O)CCN(CC(=O)O)CC1)C(N)=O` [^111In-DOTA-[Thi^8, Sar^9]-Substance P, ^111In-DOTA-Arg^1-Pro^2-Lys^3-Pro^4-Gln^5-Gln^6-Phe^7-Thi^8-Sar^9-Leu^10-Met^11-NH2, metal not drawn] ({DOTA}-RPKPQQF[2Thi][Sar]LM-NH2), the IC50 at NK1 receptors came to 3.4 ± 0.4 nM.
